Experimental data: patent publication US20240383954A1, “PEPTIDE INHIBITORS OF INTERLEUKIN-23 RECEPTOR AND THEIR USE TO TREAT INFLAMMATORY DISEASES” (Janssen Biotech, Inc., priority 2020, published 2024)
Positions of bridges follow the written chain, without caps; N, C: chain ends. Non-standard residues stand in square brackets, D forms with d. Residues, ends and D or L forms follow the SMILES beside them. *: point of attachment. Trp(7-Me) = Cc1cccc2c(C[C@H](N)C(=O)O)c[nH]c12; dPhe(4-NH2) = Nc1ccc(C[C@@H](N)C(=O)O)cc1; 2Nal = N[C@@H](Cc1ccc2ccccc2c1)C(=O)O; AEF = NCCOc1ccc(C[C@H](N)C(=O)O)cc1; αMeF = C[C@](N)(Cc1ccccc1)C(=O)O; Pen = CC(C)(S)[C@H](N)C(=O)O; Ac5c = NC1(C(=O)O)CCCC1; Thp = NC1(C(=O)O)CCOCC1; Ac3c = NC1(C(=O)O)CC1; Boc = CC(C)(C)OC(=O)*; NHBn = c1ccc(CN*)cc1; X2 = c1c[nH]c(CN*)n1; X7 = Nc1cccc(N*)c1

molecular target: IL-23R (Homo sapiens, UniProt Q5VWK5); test: cell-based; settings: PBMC pSTAT3 IC50 (nM), PBMCs from healthy donors, IL-23 5 ng/mL, 30 minutes, phosphorylated STAT3
Sequence (Q5VWK5 24-629): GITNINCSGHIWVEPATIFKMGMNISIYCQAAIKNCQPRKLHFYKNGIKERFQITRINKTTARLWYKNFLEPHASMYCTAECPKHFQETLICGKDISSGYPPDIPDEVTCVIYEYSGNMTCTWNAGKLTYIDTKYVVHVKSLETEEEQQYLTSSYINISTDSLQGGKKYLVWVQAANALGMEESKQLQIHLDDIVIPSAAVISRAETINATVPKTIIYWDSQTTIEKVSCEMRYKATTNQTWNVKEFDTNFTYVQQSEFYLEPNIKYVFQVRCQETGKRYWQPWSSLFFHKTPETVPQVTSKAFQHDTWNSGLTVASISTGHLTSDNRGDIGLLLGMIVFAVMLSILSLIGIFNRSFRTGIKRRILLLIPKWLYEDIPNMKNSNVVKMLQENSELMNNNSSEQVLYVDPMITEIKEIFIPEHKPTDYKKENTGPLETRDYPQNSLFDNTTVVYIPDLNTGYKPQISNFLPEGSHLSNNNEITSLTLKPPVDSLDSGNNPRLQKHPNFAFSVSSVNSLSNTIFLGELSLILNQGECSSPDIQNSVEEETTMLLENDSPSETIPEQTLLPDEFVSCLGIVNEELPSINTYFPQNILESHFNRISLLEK
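Note: cryopreserved PBMCs stimulated at 37 °C in 5% CO2, then lysed, with phosphorylated STAT3 quantified in lysates using a phospho-STAT panel kit.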
Procedure: Cryopreserved peripheral blood mononuclear cells (PBMCs) from healthy donors were thawed and washed twice in ImmunoCult-XF T cell expansion medium (XF-TCEM) supplemented with CTL anti-aggregate wash. […] The cells were stimulated with cytokine for 30 minutes at 37° C. in 5% CO2, transferred onto ice for 10 minutes, and lysed. Cell lysates were stored at −80° C. until phosphorylated STAT3 was measured using the phospho-STAT panel kit (Meso Scale Discovery, K15202D).

| SMILES | IC50 |
| --- | --- |
| CC(=O)NCCCC[C@@H]1NC(=O)[C@H](Cc2c[nH]c3c(C)cccc23)NC(=O)[C@H]([C@@H](C)O)NC(=O)[C@H](CC(N)=O)NC(=O)[C@@H](NC(=O)[C@@H](CCCNC(=N)N)NC(C)=O)C(C)(C)SSC(C)(C)[C@@H](C(=O)N[C@@H](Cc2ccc(OCCN)cc2)C(=O)N[C@@H](Cc2ccc3ccccc3c2)C(=O)NC2(C(=O)N[C@@H](CCC(=O)O)C(=O)N[C@@H](CC(N)=O)C(=O)N[C@@H](Cc3c[nH]cn3)C(=O)N[C@H](Cc3ccc(N)cc3)C(N)=O)CC2)NC1=O [Compound 315, MeCO-r-Pen-N-T-7MeW-K(Ac)-Pen-AEF-2Nal-Acpx-E-N-H-4AmDPhe---CONH2] (Ac-[dR][Pen]NT[Trp(7-Me)]K(Ac)[Pen][AEF][2Nal][Ac3c]ENH[dPhe(4-NH2)]-NH2; disulfide 2-7) | 2 nM |
| CC(=O)N[C@H](CCCNC(=N)N)C(=O)N[C@@H]1C(=O)N[C@@H](CCC(N)=O)C(=O)N[C@@H]([C@@H](C)O)C(=O)N[C@@H](Cc2c[nH]c3ccccc23)C(=O)N[C@@H](CCC(N)=O)C(=O)N[C@H](C(=O)N[C@@H](Cc2ccc(OCCN)cc2)C(=O)N[C@@H](Cc2ccc3ccccc3c2)C(=O)NC2(C(=O)N[C@@H](CCC(=O)O)C(=O)N[C@@H](CC(N)=O)C(=O)N[C@@H](CC(=O)NCc3ccccc3)C(N)=O)CCOCC2)C(C)(C)SSC1(C)C [Compound 110, Ac-[(D)Arg]-[Pen]-Q-T-W-Q-[Pen]-Phe[4-(2-aminoethoxy)]-[2-Nal]-[THP]-E-N-[(N-benzyl)Asn]-NH2] (Ac-[dR][Pen]QTWQ[Pen][AEF][2Nal][Thp]END(NHBn)-NH2; disulfide 2-7) | 700 nM |
| CC(=O)NCCCC[C@@H]1NC(=O)[C@H](Cc2c[nH]c3c(C)cccc23)NC(=O)[C@H]([C@@H](C)O)NC(=O)[C@H](CC(N)=O)NC(=O)[C@@H](NC(=O)[C@H](N)CCCNC(=N)N)C(C)(C)SSC(C)(C)[C@@H](C(=O)N[C@@H](Cc2ccc(OCCNC(=O)OC(C)(C)C)cc2)C(=O)N[C@@H](Cc2ccc3ccccc3c2)C(=O)NC2(C(=O)N[C@@H](CCC(=O)O)C(=O)N[C@@H](CC(N)=O)C(=O)N[C@@](C)(Cc3ccccc3)C(N)=O)CCOCC2)NC1=O [Compound 305, NH2-r-Pen-N-T-7MeW-K(Ac)-Pen-AEF(Boc)-2Nal-THP-E-N-aMePhe-CONH2] (H-[dR][Pen]NT[Trp(7-Me)]K(Ac)[Pen][AEF](Boc)[2Nal][Thp]EN[αMeF]-NH2; disulfide 2-7) | 17 nM |
| CC(=O)NCCCC[C@@H]1NC(=O)[C@H](Cc2c[nH]c3ccccc23)NC(=O)[C@H]([C@@H](C)O)NC(=O)[C@H](CC(N)=O)NC(=O)[C@@H](NC(=O)[C@@H](CCCNC(=N)N)NC(C)=O)C(C)(C)SSC(C)(C)[C@@H](C(=O)N[C@@H](Cc2ccc(OCCN)cc2)C(=O)N[C@@H](Cc2ccc3ccccc3c2)C(=O)NC2(C(=O)N[C@@H](CCC(=O)O)C(=O)N[C@@H](CC(N)=O)C(=O)NC3(C(N)=O)CCOCC3)CCCC2)NC1=O [Compound 88, Ac-[(D)Arg]-[Pen]-N-T-W-[Lys(Ac)]-[Pen]-Phe[4-(2-aminoethoxy)]-[2-Nal]-[Acvc]-E-N-[THP]-NH2] (Ac-[dR][Pen]NTWK(Ac)[Pen][AEF][2Nal][Ac5c]EN[Thp]-NH2; disulfide 2-7) | 3.7 nM |
| CC(=O)NCCCC[C@@H]1NC(=O)[C@H](Cc2c[nH]c3c(C)cccc23)NC(=O)[C@H]([C@@H](C)O)NC(=O)[C@H](CC(N)=O)NC(=O)[C@@H](NC(=O)[C@@H](CCCNC(=N)N)NC(C)=O)C(C)(C)SSC(C)(C)[C@@H](C(=O)N[C@@H](Cc2ccc(OCCN)cc2)C(=O)N[C@@H](Cc2ccc3ccccc3c2)C(=O)NC2(C(=O)N[C@@H](CCC(=O)O)C(=O)N[C@@H](CC(N)=O)C(=O)N[C@@](C)(Cc3ccccc3)C(N)=O)CCOCC2)NC1=O [Compound 77, Ac-[(D)Arg]-[Pen]-N-T-[W(7-Me)]-[Lys(Ac)]-[Pen]-Phe[4-(2-aminoethoxy)]-[2-Nal]-[THP]-E-N-[a-MePhe]-NH2] (Ac-[dR][Pen]NT[Trp(7-Me)]K(Ac)[Pen][AEF][2Nal][Thp]EN[αMeF]-NH2; disulfide 2-7) | 6.4 nM |
| CC(=O)N[C@H](CCCNC(=N)N)C(=O)N[C@@H]1C(=O)N[C@@H](CCC(N)=O)C(=O)N[C@@H]([C@@H](C)O)C(=O)N[C@@H](Cc2c[nH]c3ccccc23)C(=O)N[C@@H](CCC(N)=O)C(=O)N[C@H](C(=O)N[C@@H](Cc2ccc(OCCN)cc2)C(=O)N[C@@H](Cc2ccc3ccccc3c2)C(=O)NC2(C(=O)N[C@@H](CCC(=O)O)C(=O)N[C@@H](CC(N)=O)C(=O)N[C@@H](CC(=O)NCc3ncc[nH]3)C(N)=O)CCOCC2)C(C)(C)SSC1(C)C [Compound 137, Ac-[(D)Arg]-[Pen]-Q-T-W-Q-[Pen]-Phe[4-(2-aminoethoxy)]-[2-Nal]-[THP]-E-N-[(N-(imidazol-2-yl)methyl)Asn]-NH2] (Ac-[dR][Pen]QTWQ[Pen][AEF][2Nal][Thp]END(X2)-NH2; disulfide 2-7) | 14 nM |
| CC(=O)N[C@H](CCCNC(=N)N)C(=O)N[C@@H]1C(=O)N[C@@H](CC(N)=O)C(=O)N[C@@H]([C@@H](C)O)C(=O)N[C@@H](Cc2c[nH]c3c(C)cccc23)C(=O)N[C@@H](CCC(N)=O)C(=O)N[C@H](C(=O)N[C@@H](Cc2ccc(OCCN)cc2)C(=O)N[C@@H](Cc2ccc3ccccc3c2)C(=O)NC2(C(=O)N[C@@H](CCC(=O)O)C(=O)N[C@@H](CC(N)=O)C(=O)N[C@@](C)(Cc3ccccc3)C(N)=O)CCCC2)C(C)(C)SSC1(C)C [Compound 93, Ac-[(D)Arg]-[Pen]-N-T-[W(7-Me)]-Q-[Pen]-Phe[4-(2-aminoethoxy)]-[2-Nal]-[Acvc]-E-N-[a-MePhe]-NH2] (Ac-[dR][Pen]NT[Trp(7-Me)]Q[Pen][AEF][2Nal][Ac5c]EN[αMeF]-NH2; disulfide 2-7) | 4.6 nM |
| COc1ccc(C[C@@H](NC(=O)[C@H](CC(N)=O)NC(=O)[C@](C)(CCC(=O)O)NC(=O)C2(NC(=O)[C@H](Cc3ccc4ccccc4c3)NC(=O)[C@H](Cc3ccc(OCCN)cc3)NC(=O)[C@@H]3CSCC[C@H](NC(=O)[C@@H](CCCNC(=N)N)NC(C)=O)C(=O)N[C@@H](CCC(N)=O)C(=O)N[C@@H]([C@@H](C)O)C(=O)N[C@@H](Cc4c[nH]c5ccccc45)C(=O)N[C@@H](CCC(N)=O)C(=O)N3)CCOCC2)C(N)=O)cc1OC [Compound 79, Ac-[(D)Arg]-[Abu]-Q-T-W-Q-[Cys]-Phe[4-(2-aminoethoxy)]-[2-Nal]-[THP]-[aMeGlu]-N-[(D)Phe(3,4-diOMe)]-NH2] | 25 nM |
| CC(=O)N[C@H](CCCNC(=N)N)C(=O)N[C@@H]1C(=O)N[C@@H](CCC(N)=O)C(=O)N[C@@H]([C@@H](C)O)C(=O)N[C@@H](Cc2c[nH]c3ccccc23)C(=O)N[C@@H](CCC(N)=O)C(=O)N[C@H](C(=O)N[C@@H](Cc2ccc(OCCN)cc2)C(=O)N[C@@H](Cc2ccc3ccccc3c2)C(=O)NC2(C(=O)N[C@@H](CCC(=O)O)C(=O)N[C@@H](CC(N)=O)C(=O)N[C@@H](CC(=O)Nc3cccc(N)c3)C(N)=O)CCOCC2)C(C)(C)SSC1(C)C [Compound 130, Ac-[(D)Arg]-[Pen]-Q-T-W-Q-[Pen]-Phe[4-(2-aminoethoxy)]-[2-Nal]-[THP]-E-N-[(N-(3-aminophenyl))Asn]-NH2] (Ac-[dR][Pen]QTWQ[Pen][AEF][2Nal][Thp]END(X7)-NH2; disulfide 2-7) | 9.2 nM |
| CC(=O)NCCCC[C@@H]1NC(=O)[C@H](Cc2c[nH]c3c(C)cccc23)NC(=O)[C@H]([C@@H](C)O)NC(=O)[C@H](CC(N)=O)NC(=O)[C@@H](NC(=O)[C@@H](CCCNC(=N)N)NC(C)=O)C(C)(C)SSC(C)(C)[C@@H](C(=O)N[C@@H](Cc2ccc(OCCN)cc2)C(=O)N[C@@H](Cc2ccc3ccccc3c2)C(=O)NC2(C(=O)N[C@@H](CCC(=O)O)C(=O)N[C@@H](CC(N)=O)C(=O)N[C@@](C)(Cc3ccccc3)C(N)=O)CCOCC2)NC1=O [Compound 124, Ac-[(D)Arg]-[Pen]-N-T-[W(7-Me)]-[Lys(Ac)]-[Pen]-Phe[4-(2-aminoethoxy)]-[2-Nal]-[THP]-E-N-[a-MePhe]-NH2] (Ac-[dR][Pen]NT[Trp(7-Me)]K(Ac)[Pen][AEF][2Nal][Thp]EN[αMeF]-NH2; disulfide 2-7) | 11 nM |
| CC(=O)NCCCC[C@@H]1NC(=O)[C@H](Cc2c[nH]c3c(C)cccc23)NC(=O)[C@H]([C@@H](C)O)NC(=O)[C@H](CC(N)=O)NC(=O)[C@@H](NC(=O)[C@@H](CCCNC(=N)N)NC(C)=O)C(C)(C)SSC(C)(C)[C@@H](C(=O)N[C@@H](Cc2ccc(OCCN)cc2)C(=O)N[C@@H](Cc2ccc3ccccc3c2)C(=O)NC2(C(=O)N[C@@H](CCC(=O)O)C(=O)N[C@@H](CC(N)=O)C(=O)NC3(C(N)=O)CCOCC3)CCCC2)NC1=O [Compound 101, Ac-[(D)Arg]-[Pen]-N-T-[W(7-Me)]-[Lys(Ac)]-[Pen]-Phe[4-(2-aminoethoxy)]-[2-Nal]-[Acvc]-E-N-[THP]-NH2] (Ac-[dR][Pen]NT[Trp(7-Me)]K(Ac)[Pen][AEF][2Nal][Ac5c]EN[Thp]-NH2; disulfide 2-7) | 0.74 nM |
| CC(=O)NCCCC[C@@H]1NC(=O)[C@H](Cc2c[nH]c3c(C)cccc23)NC(=O)[C@H]([C@@H](C)O)NC(=O)[C@H](CC(N)=O)NC(=O)[C@@H](NC(C)=O)C(C)(C)SSC(C)(C)[C@@H](C(=O)N[C@@H](Cc2ccc(OCCN)cc2)C(=O)N[C@@H](Cc2ccc3ccccc3c2)C(=O)NC2(C(=O)N[C@@H](CCCCNC(=O)C(F)(F)F)C(=O)N[C@@H](CC(N)=O)C(=O)NC3(C(N)=O)CCOCC3)CCOCC2)NC1=O [Compound 140, Ac-[Pen]-N-T-[W(7-Me)]-[Lys(Ac)]-[Pen]-Phe[4-(2-aminoethoxy)]-[2-Nal]-[THP]-[Lys(COCF3)]-N-[THP]-NH2] | 2.6 nM |
| CC(=O)N[C@H](CCCNC(=N)N)C(=O)N[C@H]1CCSC[C@@H](C(=O)N[C@@H](Cc2ccc(OCCN)cc2)C(=O)N[C@@H](Cc2ccc3ccccc3c2)C(=O)NC2(C(=O)N[C@@H](CCC(=O)O)C(=O)N[C@@H](CC(N)=O)C(=O)N[C@@](C)(Cc3ccc4ccccc4c3)C(N)=O)CCOCC2)NC(=O)[C@H](CCC(N)=O)NC(=O)[C@H](Cc2c[nH]c3ccccc23)NC(=O)[C@H]([C@@H](C)O)NC(=O)[C@H](CCC(N)=O)NC1=O [Compound 80, Ac-[(D)Arg]-[Abu]-Q-T-W-Q-[Cys]-Phe[4-(2-aminoethoxy)]-[2-Nal]-[THP]-E-N-[aMe(2-Nal)]-NH2] | 46 nM |
